Key:
Type in all cases: biochemical
PI3K γ = target: T1, PI3K γ (Homo sapiens, UniProt P48736); assay: In vitro IC50, PI3K γ
T1 construct: purchased Sigma
Excerpt: (§1) An exemplary system is PI 3-Kinase (human) HTRF™ Assay from Upstate.

PI3K α = target: T2, PI3K α (Homo sapiens, UniProt P42336); assay: In vitro IC50, PI3K α
T2 construct: purchased Upstate
Excerpt: as §1

PI3K β = PI3K β (Homo sapiens, UniProt P42338); assay: In vitro IC50, PI3K β
Excerpt: as §1

PI3K δ = PI3K δ (Homo sapiens, UniProt O00329); assay: In vitro IC50, PI3K δ; parameters: purchased Upstate
PI3K δ, sequence (O00329 whole entry): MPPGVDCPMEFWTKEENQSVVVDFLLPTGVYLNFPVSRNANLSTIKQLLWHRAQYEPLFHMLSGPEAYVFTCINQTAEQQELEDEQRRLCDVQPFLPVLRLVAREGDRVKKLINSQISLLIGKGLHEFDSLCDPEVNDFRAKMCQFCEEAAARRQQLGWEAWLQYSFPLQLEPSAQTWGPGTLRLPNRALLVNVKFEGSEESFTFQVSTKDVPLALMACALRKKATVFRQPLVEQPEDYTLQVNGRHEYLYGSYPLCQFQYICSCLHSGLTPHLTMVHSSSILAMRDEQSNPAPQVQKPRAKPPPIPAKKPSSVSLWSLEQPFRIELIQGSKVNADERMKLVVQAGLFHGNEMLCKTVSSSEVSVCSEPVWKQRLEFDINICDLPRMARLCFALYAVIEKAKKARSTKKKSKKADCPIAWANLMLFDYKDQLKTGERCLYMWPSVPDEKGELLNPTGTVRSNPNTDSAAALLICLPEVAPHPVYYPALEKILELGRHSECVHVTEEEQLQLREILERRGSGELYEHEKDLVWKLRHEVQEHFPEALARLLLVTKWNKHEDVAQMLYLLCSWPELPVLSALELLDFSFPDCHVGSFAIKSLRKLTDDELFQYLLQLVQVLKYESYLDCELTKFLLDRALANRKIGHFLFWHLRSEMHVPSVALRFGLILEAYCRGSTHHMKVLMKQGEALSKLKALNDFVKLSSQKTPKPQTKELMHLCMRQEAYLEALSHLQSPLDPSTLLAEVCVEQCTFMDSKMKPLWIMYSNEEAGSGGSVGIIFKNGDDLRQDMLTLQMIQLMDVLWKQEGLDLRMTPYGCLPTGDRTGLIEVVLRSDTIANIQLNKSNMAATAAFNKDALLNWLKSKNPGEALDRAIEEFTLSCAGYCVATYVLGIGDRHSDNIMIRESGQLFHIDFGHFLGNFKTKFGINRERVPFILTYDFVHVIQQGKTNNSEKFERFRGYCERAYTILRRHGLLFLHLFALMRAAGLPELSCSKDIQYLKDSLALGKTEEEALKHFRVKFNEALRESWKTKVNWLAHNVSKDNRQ
PI3K δ, sequence (P27986 whole entry partner): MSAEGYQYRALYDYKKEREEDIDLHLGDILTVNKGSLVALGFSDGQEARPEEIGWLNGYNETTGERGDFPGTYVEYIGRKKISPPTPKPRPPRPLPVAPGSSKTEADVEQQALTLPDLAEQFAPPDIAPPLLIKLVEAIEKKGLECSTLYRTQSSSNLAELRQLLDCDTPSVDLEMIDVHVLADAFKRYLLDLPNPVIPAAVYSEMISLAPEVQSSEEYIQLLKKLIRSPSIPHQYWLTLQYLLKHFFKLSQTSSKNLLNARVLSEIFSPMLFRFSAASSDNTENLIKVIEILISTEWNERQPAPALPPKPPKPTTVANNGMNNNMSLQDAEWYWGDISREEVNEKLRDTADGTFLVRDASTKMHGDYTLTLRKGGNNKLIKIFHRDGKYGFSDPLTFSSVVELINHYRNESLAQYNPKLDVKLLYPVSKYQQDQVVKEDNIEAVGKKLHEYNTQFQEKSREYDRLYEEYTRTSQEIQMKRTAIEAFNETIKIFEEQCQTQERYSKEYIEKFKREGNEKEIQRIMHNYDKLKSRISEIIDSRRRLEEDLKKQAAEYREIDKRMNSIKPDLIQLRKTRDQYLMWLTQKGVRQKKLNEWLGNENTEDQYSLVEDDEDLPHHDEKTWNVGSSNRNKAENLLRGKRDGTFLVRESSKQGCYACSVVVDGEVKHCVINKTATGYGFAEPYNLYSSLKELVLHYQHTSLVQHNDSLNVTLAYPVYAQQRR
Excerpt: as §1

PI3K β, sequence (P42338 whole entry): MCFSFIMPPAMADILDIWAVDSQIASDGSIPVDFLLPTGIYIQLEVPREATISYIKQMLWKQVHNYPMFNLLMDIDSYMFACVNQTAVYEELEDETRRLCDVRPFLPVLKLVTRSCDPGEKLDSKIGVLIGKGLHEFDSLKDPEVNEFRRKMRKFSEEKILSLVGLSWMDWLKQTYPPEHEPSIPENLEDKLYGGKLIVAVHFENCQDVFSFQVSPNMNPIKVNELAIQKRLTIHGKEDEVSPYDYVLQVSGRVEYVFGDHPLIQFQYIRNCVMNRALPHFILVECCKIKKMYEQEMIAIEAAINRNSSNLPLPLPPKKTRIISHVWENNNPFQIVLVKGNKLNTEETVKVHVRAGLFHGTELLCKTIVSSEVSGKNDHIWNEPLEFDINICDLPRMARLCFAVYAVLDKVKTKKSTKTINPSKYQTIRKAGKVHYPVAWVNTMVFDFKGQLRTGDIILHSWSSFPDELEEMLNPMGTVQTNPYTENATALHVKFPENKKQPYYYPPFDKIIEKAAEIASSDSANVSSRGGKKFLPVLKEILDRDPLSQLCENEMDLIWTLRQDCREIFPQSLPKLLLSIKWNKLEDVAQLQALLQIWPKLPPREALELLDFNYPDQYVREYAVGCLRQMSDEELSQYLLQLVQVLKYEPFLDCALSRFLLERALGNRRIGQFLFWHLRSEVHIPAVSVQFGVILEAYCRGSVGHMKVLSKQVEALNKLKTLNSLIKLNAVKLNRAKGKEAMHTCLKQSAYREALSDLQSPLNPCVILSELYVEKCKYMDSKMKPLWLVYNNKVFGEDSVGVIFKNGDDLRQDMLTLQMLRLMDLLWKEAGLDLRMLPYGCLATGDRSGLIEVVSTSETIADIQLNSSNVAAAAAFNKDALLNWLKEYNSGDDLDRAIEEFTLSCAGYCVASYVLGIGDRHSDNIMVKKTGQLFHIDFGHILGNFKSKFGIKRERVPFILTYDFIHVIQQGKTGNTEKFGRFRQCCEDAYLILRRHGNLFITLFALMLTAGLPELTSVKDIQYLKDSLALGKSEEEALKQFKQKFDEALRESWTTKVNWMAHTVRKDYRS
T2 sequence (P42336 whole entry): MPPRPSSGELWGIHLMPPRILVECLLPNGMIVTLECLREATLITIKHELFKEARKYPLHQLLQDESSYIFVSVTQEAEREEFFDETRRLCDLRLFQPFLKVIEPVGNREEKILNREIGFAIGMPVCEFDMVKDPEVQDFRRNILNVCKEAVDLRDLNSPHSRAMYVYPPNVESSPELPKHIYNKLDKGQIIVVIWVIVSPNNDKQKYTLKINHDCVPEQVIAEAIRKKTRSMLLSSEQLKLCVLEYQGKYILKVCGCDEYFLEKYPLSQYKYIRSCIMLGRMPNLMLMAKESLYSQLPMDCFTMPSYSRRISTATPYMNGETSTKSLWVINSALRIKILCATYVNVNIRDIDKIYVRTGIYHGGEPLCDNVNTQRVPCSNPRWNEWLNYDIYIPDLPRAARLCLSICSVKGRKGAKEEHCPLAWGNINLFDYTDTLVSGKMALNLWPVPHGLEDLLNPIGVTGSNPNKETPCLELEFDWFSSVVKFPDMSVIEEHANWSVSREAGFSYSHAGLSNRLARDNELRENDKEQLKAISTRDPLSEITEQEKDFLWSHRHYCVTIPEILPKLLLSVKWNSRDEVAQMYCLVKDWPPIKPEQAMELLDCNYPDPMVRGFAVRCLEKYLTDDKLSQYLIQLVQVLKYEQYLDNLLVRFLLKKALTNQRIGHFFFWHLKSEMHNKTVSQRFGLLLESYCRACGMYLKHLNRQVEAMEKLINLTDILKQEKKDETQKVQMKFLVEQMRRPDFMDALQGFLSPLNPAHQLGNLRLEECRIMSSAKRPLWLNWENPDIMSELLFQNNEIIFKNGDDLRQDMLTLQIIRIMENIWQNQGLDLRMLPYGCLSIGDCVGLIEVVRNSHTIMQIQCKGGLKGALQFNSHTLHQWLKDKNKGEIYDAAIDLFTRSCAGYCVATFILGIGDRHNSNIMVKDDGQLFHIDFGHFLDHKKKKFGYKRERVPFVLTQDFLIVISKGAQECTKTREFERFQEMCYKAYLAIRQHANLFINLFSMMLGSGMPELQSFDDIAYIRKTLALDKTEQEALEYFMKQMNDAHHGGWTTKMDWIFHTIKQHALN
T2 sequence (P27986 whole entry partner): as the sequence (P27986 whole entry partner) above
T1 sequence (P48736 whole entry): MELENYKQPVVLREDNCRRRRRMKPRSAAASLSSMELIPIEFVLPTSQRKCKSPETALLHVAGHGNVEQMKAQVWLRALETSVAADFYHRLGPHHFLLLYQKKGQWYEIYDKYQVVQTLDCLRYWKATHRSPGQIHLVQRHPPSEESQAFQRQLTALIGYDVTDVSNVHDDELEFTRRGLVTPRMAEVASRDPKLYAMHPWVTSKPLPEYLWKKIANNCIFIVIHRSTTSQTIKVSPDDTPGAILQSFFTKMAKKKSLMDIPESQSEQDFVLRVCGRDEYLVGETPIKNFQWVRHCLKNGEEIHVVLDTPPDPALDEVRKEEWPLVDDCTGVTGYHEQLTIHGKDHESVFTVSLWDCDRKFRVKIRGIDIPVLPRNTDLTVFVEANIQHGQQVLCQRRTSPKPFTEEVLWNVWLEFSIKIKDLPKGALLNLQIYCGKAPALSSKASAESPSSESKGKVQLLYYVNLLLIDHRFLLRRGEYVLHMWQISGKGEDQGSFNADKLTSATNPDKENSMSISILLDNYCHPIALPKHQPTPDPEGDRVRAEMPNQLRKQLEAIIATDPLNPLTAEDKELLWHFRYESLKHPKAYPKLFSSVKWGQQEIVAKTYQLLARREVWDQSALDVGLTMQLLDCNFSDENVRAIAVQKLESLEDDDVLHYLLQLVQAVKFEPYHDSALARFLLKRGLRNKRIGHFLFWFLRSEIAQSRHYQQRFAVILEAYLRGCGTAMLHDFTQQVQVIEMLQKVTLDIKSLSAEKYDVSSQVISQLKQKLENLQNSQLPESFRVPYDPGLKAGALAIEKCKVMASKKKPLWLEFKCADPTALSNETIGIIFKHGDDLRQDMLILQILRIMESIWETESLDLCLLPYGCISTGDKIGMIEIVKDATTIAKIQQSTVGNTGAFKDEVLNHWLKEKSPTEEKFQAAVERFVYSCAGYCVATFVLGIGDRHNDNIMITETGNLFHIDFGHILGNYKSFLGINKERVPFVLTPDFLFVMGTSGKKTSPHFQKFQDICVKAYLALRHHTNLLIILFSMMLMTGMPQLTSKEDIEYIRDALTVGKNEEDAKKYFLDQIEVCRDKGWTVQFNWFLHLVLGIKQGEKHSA

Structure (SMILES) | IC50 (PI3K γ) | IC50 (PI3K α) | IC50 (PI3K β) | IC50 (PI3K δ)
Cc1ccccc1-n1c(Cn2nc(C(=O)NO)c3c(N)ncnc32)cc2cccc(C)c2c1=O [Compound 300] | < 1000 nM | > 10000 nM | < 10000 nM | < 1000 nM
Cc1ccccc1-n1c(Cn2nc(I)c3c(N)ncnc32)cc2cccc(F)c2c1=O [Compound 42] | < 10000 nM | > 10000 nM | > 10000 nM | < 1000 nM
Cc1ccccc1-n1c(Cn2nc(-c3ccc4ncnc(N)c4c3)c3c(N)ncnc32)cc2cccc(C)c2c1=O [Compound 152] | < 100 nM | < 10000 nM | > 10000 nM | < 100 nM
Cc1cccc2cc(Cn3nc(-c4cccc(O)c4)c4c(N)ncnc43)n(-c3ccccc3Cl)c(=O)c12 [Compound 96] | < 100 nM | > 10000 nM | < 10000 nM | < 100 nM
Cc1ccccc1-n1c(Cn2nc(-c3cccc(O)c3)c3c(N)ncnc32)cc2cccc(F)c2c1=O [Compound 59] | < 100 nM | > 10000 nM | > 10000 nM | < 100 nM
Cc1cccc2cc(Cn3nc(/C=C4/CCNC4=O)c4c(N)ncnc43)n(-c3ccccc3F)c(=O)c12 [Compound 172] | > 10000 nM | > 10000 nM | > 10000 nM | < 10000 nM
Cc1cccc2cc(Cn3nc(I)c4c(N)ncnc43)n(C3CCCCC3)c(=O)c12 [Compound 87] | < 100 nM | > 10000 nM | > 10000 nM | < 1000 nM
Cc1ccccc1-n1c(Cn2nc(/C=C3/SC(=O)NC3=O)c3c(N)ncnc32)cc2cccc(C)c2c1=O [Compound 173] | < 100 nM | < 10000 nM | < 10000 nM | < 100 nM
COc1cc(-c2nn(Cc3cc4cccc(C)c4c(=O)n3-c3ccccc3C)c3ncnc(N)c23)ccc1Cl [Compound 21] | < 100 nM | > 10000 nM | > 10000 nM | < 1000 nM
Cc1cccc2cc(Cn3nc(-c4cc(O)cc(F)c4)c4c(N)ncnc43)n(C3CCCC3)c(=O)c12 [Compound 63] | < 100 nM | < 10000 nM | < 10000 nM | < 100 nM
Cc1ccccc1-n1c(Cn2nc(/C=C/C(N)=O)c3c(N)ncnc32)cc2cccc(C)c2c1=O [Compound 174] | < 100 nM | > 10000 nM | < 10000 nM | < 100 nM
Cc1cccc2cc(Cn3nc(-c4cc(O)cc(F)c4)c4c(N)ncnc43)n(-c3ccccc3F)c(=O)c12 [Compound 3] | < 100 nM | < 10000 nM | < 10000 nM | < 100 nM
Cc1cccc2cc(Cn3nc(C#C[C@@H](C)O)c4c(N)ncnc43)n(-c3ccccc3C(C)C)c(=O)c12 [Compound 83] | < 100 nM | > 10000 nM | < 10000 nM | < 100 nM
COc1ccccc1-n1c(Cn2nc(-c3cc(O)cc(F)c3)c3c(N)ncnc32)cc2cccc(C)c2c1=O [Compound 84] | < 100 nM | < 10000 nM | < 10000 nM | < 100 nM
Cc1cccc2cc(Cn3nc(-c4cccc(F)c4)c4c(N)ncnc43)n(-c3ccccc3F)c(=O)c12 [Compound 40] | < 10000 nM | > 10000 nM | > 10000 nM | < 10000 nM
Cc1cccc2cc(Cn3nc(C#N)c4c(N)ncnc43)n(-c3ccccc3F)c(=O)c12 [Compound 169] | > 10000 nM | > 10000 nM | > 10000 nM | < 100 nM
CCc1ccccc1-n1c(Cn2nc(-c3cc(O)cc(F)c3)c3c(N)ncnc32)cc2cccc(C)c2c1=O [Compound 89] | < 100 nM | < 10000 nM | < 1000 nM | < 100 nM
Cc1ccccc1-n1c(Cn2nc(-c3ccc4nc(N)ncc4c3)c3c(N)ncnc32)cc2cccc(C)c2c1=O [Compound 150] | < 100 nM | < 100 nM | < 1000 nM | < 100 nM
CCc1ccccc1-n1c(Cn2nc(-c3cccc(O)c3)c3c(N)ncnc32)cc2cccc(C)c2c1=O [Compound 88] | < 100 nM | > 10000 nM | > 10000 nM | < 100 nM
Cc1cccc2cc(Cn3nc(-c4cccc(O)c4)c4c(N)ncnc43)n(-c3ccccc3F)c(=O)c12 [Compound 10] | < 1000 nM | > 10000 nM | > 10000 nM | < 100 nM
Cc1cccc2cc(Cn3nc(-c4ccc(Cl)c(O)c4)c4c(N)ncnc43)n(C3CCCC3)c(=O)c12 [Compound 71] | < 1000 nM | > 10000 nM | < 10000 nM | < 1000 nM
Cc1cccc2cc(Cn3nc(-c4ccc(F)c(O)c4)c4c(N)ncnc43)n(C3CCCC3)c(=O)c12 [Compound 64] | < 100 nM | > 10000 nM | > 10000 nM | < 100 nM

The remaining lines, values ahead:

IC50 (PI3K γ) | IC50 (PI3K α) | IC50 (PI3K β) | IC50 (PI3K δ) | Structure (SMILES)
> 10000 nM | > 10000 nM | > 10000 nM | > 10000 nM | Cc1cccc2cc(C(C)Nc3nc(O)ncc3N)n(-c3ccccc3)c(=O)c12 (stereo not shown) [Compound 321]
< 1000 nM | > 10000 nM | < 1000 nM | < 100 nM | Cc1cccc2cc([C@H](C)Nc3nc(N)ncc3Cl)n(C3CC3)c(=O)c12 [Compound 267]
> 10000 nM | > 10000 nM | > 10000 nM | > 10000 nM | Cc1cccc2cc([C@H](C)Nc3nc(N)ncc3C(N)=O)n(C3CC3)c(=O)c12 [Compound 282]
< 1000 nM | > 10000 nM | < 100 nM | < 100 nM | Cc1cccc2cc([C@H](C)Nc3nc(Cl)nc4[nH]cnc34)n(C3CC3)c(=O)c12 [Compound 268]
< 1000 nM | > 10000 nM | < 10000 nM | < 100 nM | CCC(Nc1ncnc2[nH]cnc12)c1cc2cccc(C)c2c(=O)n1-c1ccccc1C (stereo not shown) [Compound 202]
< 100 nM | < 10000 nM | < 100 nM | < 100 nM | Cc1cccc2cc([C@H](C)Nc3ncnc4[nH]ccc34)n(C3CC3)c(=O)c12 [Compound 273]
> 10000 nM | > 10000 nM | > 10000 nM | < 1000 nM | Cc1ccccc1-n1c(Cn2nc(/C=C/C(=O)N3CCOCC3)c3c(N)ncnc32)cc2cccc(C)c2c1=O [Compound 192]
> 10000 nM | > 10000 nM | > 10000 nM | > 10000 nM | Cc1cccc2cc([C@H](C)Nc3cc(N)nc(Cl)n3)n(C3CC3)c(=O)c12 [Compound 283]
< 100 nM | < 1000 nM | < 100 nM | < 100 nM | Cc1cccc2cc([C@H](C)Nc3ncnc4[nH]cc(C#N)c34)n(-c3ccccc3)c(=O)c12 [Compound 264]
< 100 nM | < 1000 nM | < 100 nM | < 100 nM | Cc1cccc2cc([C@H](C)Nc3ncnc4[nH]cc(Cl)c34)n(-c3ccccc3)c(=O)c12 [Compound 262]
< 1000 nM | < 10000 nM | < 100 nM | < 100 nM | Cc1cccc2cc([C@H](C)Nc3nc(F)nc4[nH]cnc34)n(C3CC3)c(=O)c12 [Compound 279]
< 100 nM | < 10000 nM | < 1000 nM | < 100 nM | Cc1cccc2cc(Cn3nc(-c4cn[nH]c4)c4c(N)ncnc43)n(-c3ccccc3C(C)C)c(=O)c12 [Compound 185]
< 10000 nM | > 10000 nM | < 10000 nM | < 100 nM | CCC(Nc1ncnc2[nH]cnc12)c1cc2cccc(C)c2c(=O)n1C(C)C (stereo not shown) [Compound 219]
< 100 nM | < 1000 nM | < 1000 nM | < 100 nM | Cc1cccc2cc(Cn3nc(-c4ccc5sc(N)nc5c4)c4c(N)ncnc43)n(-c3ccccc3)c(=O)c12 [Compound 277]
< 100 nM | < 10000 nM | < 100 nM | < 100 nM | Cc1cccc2cc([C@H](C)Nc3ncnc4[nH]nc(C#N)c34)n(-c3ccccc3)c(=O)c12 [Compound 255]
< 1000 nM | > 10000 nM | > 10000 nM | < 100 nM | Cc1cccc2cc(Cn3nc(-c4cn[nH]c4)c4c(N)ncnc43)n(-c3ccccc3Cl)c(=O)c12 [Compound 188]
> 10000 nM | > 10000 nM | < 10000 nM | < 1000 nM | CCC(Nc1ncnc2[nH]cnc12)c1cc2cccc(C)c2c(=O)n1C1CCN(C)CC1 (stereo not shown) [Compound 228]
< 100 nM | < 10000 nM | < 10000 nM | < 100 nM | Cc1cccc2cc([C@H](C)Nc3nc(Cl)nc4[nH]cnc34)n(-c3ccccc3)c(=O)c12 [Compound 244]
< 100 nM | < 10000 nM | < 1000 nM | < 100 nM | CC(=O)Nc1nc2cc(-c3nn(Cc4cc5cccc(C)c5c(=O)n4-c4ccccc4C)c4ncnc(N)c34)ccc2o1 [Compound 251]
< 1000 nM | > 10000 nM | > 10000 nM | < 100 nM | Cc1cccc(C)c1-n1c(CNc2ncnc3[nH]cnc23)cc2cccc(C)c2c1=O [Compound 218]
< 100 nM | < 1000 nM | < 100 nM | < 100 nM | Cc1cccc2cc([C@H](C)Nc3ncnc4[nH]cc(Br)c34)n(-c3ccccc3)c(=O)c12 [Compound 257]
< 1000 nM | > 10000 nM | < 10000 nM | < 100 nM | Cc1cccc2cc(Cn3nc(-c4cn[nH]c4)c4c(N)ncnc43)n(-c3ccccc3C(F)(F)F)c(=O)c12 [Compound 214]
< 1000 nM | > 10000 nM | > 10000 nM | < 1000 nM | Cc1cccc2cc([C@H](C)Nc3cc(N)nc(N)n3)n(-c3ccccc3)c(=O)c12 [Compound 286]
< 100 nM | < 10000 nM | < 10000 nM | < 100 nM | Cc1cccc2cc(Cn3nc(-c4ccc5oc(N)nc5c4)c4c(N)ncnc43)n(-c3ccccc3)c(=O)c12 [Compound 205]

— patent publication US20140120083A1, “TREATMENT OF CANCERS USING PI3 KINASE ISOFORM MODULATORS” (INFINITY PHARMACEUTICALS, INC., priority 2012, published 2014)
